One assay concerns the target A/PR8-WT virus NA (Influenza A virus (H3N2), UniProt A0A193ACB1). It counts as biochemical.
Another assay deals with B/BR/60/08 virus NA (Influenza B virus, UniProt C0LT34). It counts as biochemical. Conditions: read-out: NA enzyme inhibition assay (mean IC50 ± SD).

Molecules are shown by their SMILES.

As a reminder, the IC50 is the concentration at which inhibition is half-maximal. As for `CCC(CC)[C@H](NC(C)=O)[C@@H]1[C@H](O)[C@@H](C(=O)O)C[C@H]1N=C(N)N` [Peramivir, peramivir], the “fold increase in IC50 over A/PR8-WT” value at A/PR8-WT virus NA is given as 0.1 ± 0.02 (1) fold. The values for the IC50 on A/PR8-WT virus NA (read-out: NA enzyme inhibition assay (mean IC50 ± SD)) and on B/BR/60/08 virus NA were 100 pM and 500 pM, respectively.
